Assay results published in paper PMC7884786 (Translational Psychiatry, 2021).
“Also recorded” adds a separate entry of the source. Where two headings read alike, the source gives them in different places. One block for each compound: values may come before it.

How the values were obtained:
[1] = test system: α-cell glucagon secretion in human islets; test: Islet secretion assay: glucagon secretion from human islets; format: cell-based; settings: for increase in glucagon secretion compared to vehicle / effect on α-cell glucagon secretion: 1 µM; for effect on α-cell glucagon secretion: relative to vehicle; for effect on glucagon secretion: increasing concentrations, relative to vehicle control
Experimental: (§1) For mouse pancreatic islet preparations, islets were obtained from 8 to 10-week-old wild-type BALB/c mice. Islets were freshly isolated via collagenase digestion of pancreata as described previously. Human pancreatic islets were isolated via collagenase digestion and purified from four non-diabetic human donors (Supplementary Table S1) as described previously. Following isolation and purification, human or mouse islets were plated at a density of 15 islets per well into 24-well tissue culture-treated plates. […] The islets were used immediately after overnight recovery for hormone secretion assays.
(§2) Measurements of hormone secretion were performed using static incubation of pancreatic islets. […] The increased glucose (25 mM) was used to inhibit α-cell glucagon secretion to diminish glucagon levels to basal levels to improve the dynamic range of the assay and thus effectively unmask the role of ligand-mediated glucagon secretion as described earlier. Islets were then transferred to a 24-well plate containing KRB buffer also supplemented with 25 mM glucose. Drug treatments were added in KRB (25 mM glucose) (1 hr, 37 °C, 5% CO2). After treatment, KRB was supplemented with a protease inhibitor cocktail (1 tablet/10 mL KRB; Roche Diagnostics, Mannheim, Germany) to prevent glucagon degradation. Supernatants were collected and placed on ice to further prevent glucagon degradation and precipitation. Undiluted supernatants and 1:2 dilutions were used for the glucagon detection assay, while 1:10 dilutions were used for insulin measurement; all dilutions were in KRB.

[2] = test system: glucose-stimulated insulin secretion (GSIS) from β-cells in human islets; test: Islet secretion assay: insulin secretion from human islets; format: cell-based; settings: for increase in GSIS compared to vehicle / effect on glucose-stimulated insulin secretion: 1 µM; for effect on glucose-stimulated insulin secretion: relative to vehicle; for IC50: read-out: IC50, reduction of insulin secretion (GSIS)
Experimental: as §1, with “Islets” for “For mouse pancreatic islet preparations, islets were obtained from 8 to 10-week-old wild-type BALB/c mice. Islets”
(§3) Measurements of hormone secretion were performed using static incubation of pancreatic islets. […] Islets were then transferred to a 24-well plate containing KRB buffer also supplemented with 25 mM glucose. Drug treatments were added in KRB (25 mM glucose) (1 hr, 37 °C, 5% CO2). After treatment, KRB was supplemented with a protease inhibitor cocktail (1 tablet/10 mL KRB; Roche Diagnostics, Mannheim, Germany) to prevent glucagon degradation. Supernatants were collected and placed on ice to further prevent glucagon degradation and precipitation. Undiluted supernatants and 1:2 dilutions were used for the glucagon detection assay, while 1:10 dilutions were used for insulin measurement; all dilutions were in KRB.

[3] = biological target: α2A-adrenergic receptor (Rattus norvegicus, UniProt P22909); test: NanoBRET Gαi1 recruitment to α2A-adrenergic receptor; format: cell-based
Source text: For nanoBRET experiments, we used receptor constructs consisting of either human D2R (DRD2) and rat α2A-adrenergic receptor (Adra2a) cDNAs fused to HaloTag at the C-terminus (α2A-AR-HaloTag and D2R-HaloTag). Both receptors were also tagged at the N terminus with an IL6 signal sequence followed by a HiBiT tag. […] All constructs were cloned into a pcDNA3.1(+) vector backbone (ThermoFisher Scientific) and confirmed by sequencing analysis.
For NanoLuc-only controls, empty pcDNA3.1(+) vector was used to maintain a constant amount of total transfected DNA.
Cells were harvested, washed, and resuspended in fresh medium 24 h post-transfection. Approximately 5 × 10^4 cells/well were distributed in pre-coated 96-well plates and allowed to adhere overnight (37 °C, 5% CO2). […] Following labeling, cells were washed once with HBSS, and 5 μM furimazine (substrate for NanoLuc) was added to every well. Drugs were then added to the samples and incubated for […]. Plates were read 5 min following drug addition using a PheraStar FSX equipped with a nanoBRET-compatible optic module (LUM 610 450) (BMG Labtech). […] EC50 values were calculated via a non-linear regression analysis via GraphPad software.

[4] = test system: α2A-adrenergic receptor KO INS-1E cells; test: cells; settings: Rattus norvegicus, read-out: IC50, inhibition of GSIS
Source text: (§5) We employed a CRISPR-Cas9-mediated approach to delete endogenous α2A-adrenergic receptor expression in INS-1E cells. Since INS-1E cells are rat-derived, we used the mRNA sequence encoding rat α2A-adrenergic receptor as a template to generate guide RNA (gRNA) to disrupt the promoter region of the Adra2a gene (gRNA sequence: 5′-[sequence]-3′, positions 57–76). We then generated a construct containing the Adra2a gRNA sequence along with cDNA sequences encoding Cas9 and GFP (pENTR-Adra2a-sgRNA-Cas9-GFP). 1–5 μg of the construct was subsequently transfected into low-passage INS-1E cells using Lipofectamine 3000 (ThermoFisher Scientific) according to manufacturer instructions. 24–48 h post-transfection, the transfected cells were identified and collected by fluorescence-activated cell sorting based on GFP fluorescence using a BD FACSAria II sorter (BD Biosciences, San Jose, CA) equipped with a GFP filter (530/30 nm).
(§6) Insulin secretion assays in INS-1E cells were conducted as described earlier[7],[42]. […] Insulin secretion was carried out 48 h after seeding the cells. On an experimental day, cells were first glucose-starved in KRB (0 mM glucose) for 1 h (37 °C, 5% CO2), followed by glucose stimulation with KRB supplemented with 20 mM glucose in the presence or absence of drugs for 90 min (37 °C, 5% CO2). The supernatants were collected and diluted 1:10 in KRB for the insulin detection assay.
(§7) The assay is based on homogeneous time-resolved fluorescence resonance energy transfer (HTRF) technology. Standard curve and assay samples (10 μL/well) were plated into a 384-well white, low-volume, round-bottom plate (Corning, Corning, NY). […] Secreted insulin was similarly detected and measured by an HTRF approach using the insulin high range detection kit (Cisbio Bioassays) as described previously[42]. The two anti-insulin antibodies were mixed in a 1:2 donor (cryptate)/acceptor (XL665) ratio in the insulin assay detection buffer (Cisbio Bioassays) and 15 µL of the insulin antibody mix was added per well. For both glucagon and insulin HTRF assays, the incubation time was 2 h at room temperature. […] The raw data were obtained in ng/mL insulin secreted and pg/mL glucagon secreted. Dose-response curves were fit via non-linear regression of Log[ligand] versus normalized % glucagon or insulin secretion. Investigators were blinded to the identity of samples during the initial analysis.

[5] = test system: parental INS-1E cells; test: Glucose-stimulated insulin secretion (GSIS) in parental INS-1E cells; format: cell-based; settings: Rattus norvegicus, 1.5 h, read-out: IC50, inhibition of GSIS
[6] = biological target: T1, endogenous α2A-adrenergic receptors in INS-1E cells (Rattus norvegicus, UniProt P22909); test: [3H]RX821002 radioligand binding, INS-1E cell membranes; settings: for Bmax, saturation binding / Kd: parental INS-1E cell membranes; for Kd: read-out: KD, saturation binding
T1 construct: adherent INS-1E cells expressing the endogenous α2A-adrenergic receptors; endogenous in cells; host or cells: INS-1E (rat insulinoma) cell membranes
T1 sequence (P22909 1-465): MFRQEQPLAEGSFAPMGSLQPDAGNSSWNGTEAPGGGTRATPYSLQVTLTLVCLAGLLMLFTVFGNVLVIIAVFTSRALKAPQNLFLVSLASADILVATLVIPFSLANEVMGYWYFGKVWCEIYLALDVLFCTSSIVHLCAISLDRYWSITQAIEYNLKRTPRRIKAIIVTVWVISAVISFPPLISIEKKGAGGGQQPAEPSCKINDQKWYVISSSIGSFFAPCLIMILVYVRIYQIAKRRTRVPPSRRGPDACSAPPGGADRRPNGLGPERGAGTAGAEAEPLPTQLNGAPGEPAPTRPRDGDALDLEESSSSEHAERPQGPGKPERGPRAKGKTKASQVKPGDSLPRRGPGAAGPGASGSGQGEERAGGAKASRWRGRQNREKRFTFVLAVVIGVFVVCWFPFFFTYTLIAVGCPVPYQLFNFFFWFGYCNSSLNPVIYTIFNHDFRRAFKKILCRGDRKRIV
Experimental: (§4) Radioligand binding and competition assays were conducted as previously described. Briefly, adherent INS-1E cells expressing the endogenous α2A-adrenergic receptors or transfected HEK-293 cells overexpressing human α2A-adrenergic receptor were dissociated from plates, and intact cells collected by centrifugation (600–900 g, 5–10 min, 4 °C). Cells were resuspended and lysed using 5 mM Tris-HCl and 5 mM MgCl2 (pH 7.4, 4 °C). Cell lysates were pelleted by centrifugation at 30,000 × g for 30 min and resuspended in Earle’s Balanced Salt Solution with Ca^2+ (pH 7.4). For saturation binding assays, cell lysates (100 µL, 2–5 μg of protein for HEK-293 cells and 10–20 μg of protein for INS-1E cells, quantified by the Bradford Assay) were incubated with the indicated concentrations of [^3H]RX821002 (90 min, room temperature). […] The bound ligand was separated from free ligand by filtration through a Perkin Elmer Unifilter-96 GF/C 96-well microplate using the Perkin Elmer Unifilter-96 Harvester (Perkin Elmer, Waltham, MA), followed by three washes with ice-cold assay buffer. After drying, a liquid scintillation cocktail (MicroScint PS; Perkin Elmer) was added to each well, and plates were sealed and analyzed on a Topcount NXT liquid scintillation counter (Perkin Elmer). Ki values were calculated from observed IC50 values using the Cheng–Prusoff equation[47].

[7] = test system: α-cell glucagon secretion from mouse islets; test: Islet secretion assay: glucagon secretion from mouse islets; format: cell-based; settings: for EC50: read-out: EC50, increase in secreted glucagon
Experimental: as §1, §2

[8] = test system: glucose-stimulated insulin secretion (GSIS) from β-cells in mouse islets; test: Islet secretion assay: insulin secretion from mouse islets; format: cell-based
Experimental: as §1, with “Islets” for “For mouse pancreatic islet preparations, islets were obtained from 8 to 10-week-old wild-type BALB/c mice. Islets”
as §3

[9] = biological target: T2, human α2A-adrenergic receptor (Homo sapiens, UniProt P08913); test: [3H]RX821002 radioligand binding, HEK-293 cells overexpressing α2A-adrenergic receptor; settings: membranes from HEK-293 cells overexpressing human α2A-adrenergic receptor
T2 construct: expressed in transfected cells; host or cells: HEK-293 (ATCC CRL-1573), transient transfection
T2 sequence (P08913 1-465): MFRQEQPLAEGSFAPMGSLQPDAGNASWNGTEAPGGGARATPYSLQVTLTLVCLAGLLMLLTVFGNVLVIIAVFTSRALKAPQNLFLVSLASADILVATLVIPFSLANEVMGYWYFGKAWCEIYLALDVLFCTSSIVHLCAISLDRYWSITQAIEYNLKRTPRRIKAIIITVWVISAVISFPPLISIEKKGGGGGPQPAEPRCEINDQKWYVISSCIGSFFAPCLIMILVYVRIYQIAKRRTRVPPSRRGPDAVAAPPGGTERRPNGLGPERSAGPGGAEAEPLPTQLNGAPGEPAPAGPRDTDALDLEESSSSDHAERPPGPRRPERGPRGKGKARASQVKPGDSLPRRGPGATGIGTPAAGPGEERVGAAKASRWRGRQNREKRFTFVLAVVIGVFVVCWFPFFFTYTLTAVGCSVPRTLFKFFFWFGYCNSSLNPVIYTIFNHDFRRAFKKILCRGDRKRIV
Experimental: as §4

[10] = test system: membranes from α2A-adrenergic receptor KO INS-1E cells; test: [3H]RX821002 saturation binding, α2A-adrenergic receptor KO INS-1E cell membranes; parameters: species or system rat
Experimental: as §4

[11] = test system: αTC1–6 cells; test: Catecholamine secretion assay with HPLC measurement; format: cell-based, mouse
Experimental: Cell-based catecholamine secretion assays were conducted as reported earlier[7]. Briefly, αTC1–6 cells were seeded into 24-well plates at an initial seeding density of 5 × 10^5 cells/well in complete DMEM medium. […] Some samples were also supplemented with 10 μM L-DOPA to boost cell catecholamine production in the presence or absence of a monoamine oxidase inhibitor cocktail (10 μM: deprenyl, pargyline, clorgyline). […] Lysates were collected and centrifuged at 17,000 rpm for 5 min at 4 °C to pellet cell debris and then added into HEGA buffer for High-Performance Liquid Chromatography (HPLC) analysis.
Assay samples were filtered (0.20 μm filter; ThermoFisher Scientific) and analyzed via HPLC with electrochemical detection as previously reported[7]. Briefly, samples were separated on a C18 reverse-phase column (Hypersil ODS C18 column, ThermoFisher Scientific) with MD-TM mobile phase (ThermoFisher Scientific).

[12] = test system: α2A-adrenergic receptor KO INS-1E cells; settings: α2A-adrenergic receptor KO INS-1E cells compared to parental
Source text: as §5, §6, §7

[13] = parental INS-1E cells, 20 mM glucose, 90 min
[14] = 10 μM L-DOPA supplementation, compared to untreated cells

α2A-adrenergic receptor, sequence (P63096 2-354 partner limits assumed, one chain of several): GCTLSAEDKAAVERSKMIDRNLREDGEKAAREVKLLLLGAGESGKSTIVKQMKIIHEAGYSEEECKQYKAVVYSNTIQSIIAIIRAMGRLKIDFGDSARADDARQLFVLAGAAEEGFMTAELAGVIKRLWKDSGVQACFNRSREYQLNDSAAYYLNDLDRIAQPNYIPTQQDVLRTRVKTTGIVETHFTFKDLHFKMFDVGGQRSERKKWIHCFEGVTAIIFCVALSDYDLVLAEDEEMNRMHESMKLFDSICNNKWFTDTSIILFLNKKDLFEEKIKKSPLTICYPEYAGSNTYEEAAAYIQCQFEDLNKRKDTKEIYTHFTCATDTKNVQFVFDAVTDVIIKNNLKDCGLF

Compound: Cc1cc2c(s1)Nc1ccccc1N=C2N1CCN(C)CC1 [olanzapine]
increase in glucagon secretion compared to vehicle [1]: 105.7 ± 23.4%
effect on α-cell glucagon secretion [1]: significantly raised α-cell glucagon secretion
increase in GSIS compared to vehicle ([2]; human islets): 43.6 ± 3.1%
effect on glucose-stimulated insulin secretion ([2]; human islets): raised glucose-stimulated insulin secretion

Compound: NCCc1ccc(O)c(O)c1 [DA, Dopamine]
effect on glucagon secretion [1]: biphasic glucagon secretory response
IC50 ([2]; Homo sapiens): 26.2 ± 2.9 nM
EC50 [3]: 2100 ± 2 nM
IC50 [4]: 474 ± 2.5 nM
IC50 ([5]; INS-1E): 1500 ± 2 nM
Ki [6]: 164 ± 1.2 nM
EC50 ([7]; Mus musculus, 1 h): 14.9 ± 3.8 nM
IC50 ([8]; Mus musculus, read-out: IC50, reduction of insulin secretion (GSIS), mouse islets): 1290 ± 2 nM
IC50 ([8]; read-out: IC50, reduction of insulin secretion (GSIS), mouse islets): 1300 ± 2 nM

Compound: O=C(CCCN1CCC(O)(c2ccc(Cl)cc2)CC1)c1ccc(F)cc1 [haloperidol]
increase in glucagon secretion compared to vehicle [1]: 67.1 ± 13.6%
effect on α-cell glucagon secretion [1]: significantly raised α-cell glucagon secretion
increase in GSIS compared to vehicle ([2]; human islets): 24.1 ± 4.6%
effect on glucose-stimulated insulin secretion ([2]; human islets): raised glucose-stimulated insulin secretion

IC50 ([2]; Homo sapiens, human islets): 787.2 ± 1.3 nM
IC50 ([2]; human islets): 787 ± 1.3 nM
IC50 [4]: 1400 ± 2 nM
EC50 ([7]; Mus musculus, 1 h, mouse islets, 25 mM glucose, 1 hr): 142 ± 2.3 nM
EC50 ([7]; mouse islets, 25 mM glucose, 1 hr): 142 ± 2.3 nM
IC50 ([8]; Mus musculus, mouse islets, read-out: IC50, reduction of insulin secretion (GSIS)): 178 ± 2.4 nM
IC50 ([8]; mouse islets, read-out: IC50, reduction of insulin secretion (GSIS)): 179 ± 2.4 nM
Compound: NC[C@H](O)c1ccc(O)c(O)c1 [NE, norepinephrine]
effect on glucagon secretion [1]: significantly enhance glucagon secretion; also recorded: significantly increased α-cell glucagon secretion
IC50 [5, 13]: 39.8 ± 1.5 nM

Compound: COC1(C2=NCCN2)COc2ccccc2O1 (centres unmarked) [[^3H]RX821002]
Bmax, saturation binding [9]: 5691 ± 103 fmol/mg protein
Bmax, saturation binding ([9]; listed as [3H]RX821002): 5691±103 fmol/mg protein
Kd ([9]; read-out: KD, saturation binding): 0.67 ± 0.05 nM
Bmax, saturation binding [6]: 110 ± 3.3 fmol/mg protein
Bmax, saturation binding ([6]; listed as [3H]RX821002): 110±0.02 fmol/mg protein
Kd ([6]; listed as [3H]RX821002): 0.098 ± 0.02 nM
Kd [6]: 0.1 ± 0.02 nM
Bmax, saturation binding [10]: 29.1 ± 4.3 fmol/mg protein

Compound: N[C@@H](Cc1ccc(O)c(O)c1)C(=O)O [L-DOPA, L-3,4-dihydroxyphenylalanine]
fold increase in NE [11, 14]: 3 fold
fold increase in α-cell DA secretion [11, 14]: 60 fold
DA levels, fold more compared to NE ([11]; pre-incubation with 10 μM L-DOPA): 27 fold

Compound: CC(C)NC[C@H](O)COc1cccc2ccccc12 [propranolol, S-(−)-propranolol]
effect of propranolol on DA-induced glucagon secretion ([7]; mouse islets, propranolol 100 nM pre-treatment prior to DA): attenuates DA’s enhancement of glucagon secretion; also recorded: eliminated DA-induced increases in α-cell glucagon secretion

Compound: Clc1cccc(Cl)c1N=C1NCCN1 [clonidine]
IC50 [5, 13]: 12.7 ± 1.3 nM
GSIS inhibition in KO cells [12]: attenuated; also recorded: virtually eliminated

Compound: CN1CCN(C2=Nc3cc(Cl)ccc3Nc3ccccc32)CC1 [clozapine]
increase in glucagon secretion compared to vehicle [1]: 200.2 ± 21.7%
effect on α-cell glucagon secretion [1]: significantly raised α-cell glucagon secretion
increase in GSIS compared to vehicle ([2]; human islets): 19.8 ± 4.0%
effect on glucose-stimulated insulin secretion ([2]; human islets): raised glucose-stimulated insulin secretion
